In patent US10738056B2 (Aduro BioTech, Inc., priority 2017, dated 2020):

target: Human cGAS amino acids 155-522 (Homo sapiens (Human), UniProt Q8N884); experiment: cGAS biochemical activity assay (ATP remaining, Kinase-Glo Max luminescence); details: human cGAS 155-522, ATP remaining (Kinase-Glo Max); read-out: cGAS IC50
Sequence (Q8N884 157-522): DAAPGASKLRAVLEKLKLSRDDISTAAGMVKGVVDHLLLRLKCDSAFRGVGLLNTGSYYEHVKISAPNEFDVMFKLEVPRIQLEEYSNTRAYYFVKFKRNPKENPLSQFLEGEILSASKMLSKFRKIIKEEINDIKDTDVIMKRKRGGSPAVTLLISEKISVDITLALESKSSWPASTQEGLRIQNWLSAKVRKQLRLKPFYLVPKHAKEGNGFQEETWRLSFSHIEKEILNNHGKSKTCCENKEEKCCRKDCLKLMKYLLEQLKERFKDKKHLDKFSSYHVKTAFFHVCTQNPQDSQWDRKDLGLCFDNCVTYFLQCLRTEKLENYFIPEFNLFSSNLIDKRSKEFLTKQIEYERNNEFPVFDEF

| SMILES | IC50 [µM] |
| --- | --- |
| COc1cccc2oc(-c3c(COC4CCN(C)C4=O)[nH]c4c(-c5ccccc5)c(C(F)(F)F)nn4c3=O)nc12 (stereo not shown) [Compound C1225, 6-(4-methoxybenzo[d]oxazol-2-yl)-5-(((1-methyl-2-oxopyrrolidin-3-yl)oxy)methyl)-3-phenyl-2-(trifluoromethyl)pyrazolo[1,5-a]pyrimidin-7(4H)-one] | < 20 |
| Cc1[nH]c2c(-c3ccccc3)c(C(F)(F)F)nn2c(=O)c1-c1cnc2ccccc2c1 [Compound C1007, 5-methyl-3-phenyl-6-(quinolin-3-yl)-2-(trifluoromethyl)pyrazolo[1,5-a]pyrimidin-7(4H)-one] | 20 to 250 |
| COc1cccc2oc(-c3c(C)[nH]c4c(-c5ccccc5)c(OCC(=O)O)nn4c3=O)nc12 [Compound C1072, 2-((6-(4-methoxybenzo[d]oxazol-2-yl)-5-methyl-7-oxo-3-phenyl-4,7-dihydropyrazolo[1,5-a]pyrimidin-2-yl)oxy)acetic acid] | 20 to 250 |
| COc1cccc2c1nc(-c1c(C)[nH]c3c(-c4ccccc4)c(C(F)(F)F)nn3c1=O)n2CCO [Compound C1201, 6-(1-(2-hydroxyethyl)-4-methoxy-1H-benzo[d]imidazol-2-yl)-5-methyl-3-phenyl-2-(trifluoromethyl)pyrazolo[1,5-a]pyrimidin-7(4H)-one] | 20 to 250 |
| COC(=O)Nc1ccccc1NC(=O)c1c(C)[nH]c2c(-c3ccccc3)c(C(F)(F)F)nn2c1=O [Compound A1038, methyl (2-(5-methyl-7-oxo-3-phenyl-2-(trifluoromethyl)-4,7-dihydropyrazolo[1,5-a]pyrimidine-6-carboxamido)phenyl)carbamate] | 20 to 250 |
| Cc1[nH]c2c(-c3ccccc3)c(C(F)(F)F)nn2c(=O)c1-c1nnc(CC2CCN(C)CC2)o1 [Compound D1065, 5-methyl-6-(5-((1-methylpiperidin-4-yl)methyl)-1,3,4-oxadiazol-2-yl)-3-phenyl-2-(trifluoromethyl)pyrazolo[1,5-a]pyrimidin-7(4H)-one] | 20 to 250 |
| Cc1ccc(CN2CCN(C(=O)Cc3c(C)[nH]c4c(-c5ccccc5)c(C(F)(F)F)nn4c3=O)CC2)cc1 [Compound B1009, 5-methyl-6-(2-(4-(4-methylbenzyl)piperazin-1-yl)-2-oxoethyl)-3-phenyl-2-(trifluoromethyl)pyrazolo[1,5-a]pyrimidin-7(4H)-one] | > 250 |
| COc1cccn2nc(-c3c(C)[nH]c4c(-c5ccccc5)c(C(F)(F)F)nn4c3=O)nc12 [Compound C1110, 6-(8-methoxy-[1,2,4]triazolo[1,5-a]pyridin-2-yl)-5-methyl-3-phenyl-2-(trifluoromethyl)pyrazolo[1,5-a]pyrimidin-7(4H)-one] | 20 to 250 |
| COc1cccc2c1nc(-c1c(C)[nH]c3c(-c4ccccc4)c(C(F)(F)F)nn3c1=O)n2C [Compound C1087, 6-(4-methoxy-1-methyl-1H-benzo[d]imidazol-2-yl)-5-methyl-3-phenyl-2-(trifluoromethyl)pyrazolo[1,5-a]pyrimidin-7(4H)-one] | 20 to 250 |
| Cc1[nH]c2c(-c3ccccc3)c(C(F)(F)F)nn2c(=O)c1C(=O)N[C@H]1CCCC[C@H]1O [Compound A1092, N-((1S,2R)-2-hydroxycyclohexyl)-5-methyl-7-oxo-3-phenyl-2-(trifluoromethyl)-4,7-dihydropyrazolo[1,5-a]pyrimidine-6-carboxamide] | 20 to 250 |
| Cc1[nH]c2c(-c3ccccc3)c(C(F)(F)F)nn2c(=O)c1-c1nnc(N2CCOCC2)o1 [Compound D1009, 5-methyl-6-(5-morpholino-1,3,4-oxadiazol-2-yl)-3-phenyl-2-(trifluoromethyl)pyrazolo[1,5-a]pyrimidin-7(4H)-one] | 20 to 250 |
| Cc1[nH]c2c(-c3ccccc3)c(C(F)(F)F)nn2c(=O)c1C(=O)Nc1[nH]nc(C(F)(F)F)c1C(C)C [Compound A1058, N-(4-isopropyl-3-(trifluoromethyl)-1H-pyrazol-5-yl)-5-methyl-7-oxo-3-phenyl-2-(trifluoromethyl)-4,7-dihydropyrazolo[1,5-a]pyrimidine-6-carboxamide] | 20 to 250 |
| Cc1[nH]c2c(-c3ccccc3)c(C#N)nn2c(=O)c1-c1nc2ccccc2n1C1CCCCC1 [Compound C1276, 6-(1-cyclohexyl-1H-benzo[d]imidazol-2-yl)-5-methyl-7-oxo-3-phenyl-4,7-dihydropyrazolo[1,5-a]pyrimidine-2-carbonitrile] | < 20 |
| COCc1[nH]c2c(-c3ccccc3)c(C(F)(F)F)nn2c(=O)c1C(=O)Nc1ccccc1OC [Compound A1042, 5-(methoxymethyl)-N-(2-methoxyphenyl)-7-oxo-3-phenyl-2-(trifluoromethyl)-4,7-dihydropyrazolo[1,5-a]pyrimidine-6-carboxamide] | 20 to 250 |
| Cc1[nH]c2c(-c3ccccc3)c(C(F)(F)F)nn2c(=O)c1-c1nc(C(N)=O)co1 [Compound C1102, 2-(5-methyl-7-oxo-3-phenyl-2-(trifluoromethyl)-4,7-dihydropyrazolo[1,5-a]pyrimidin-6-yl)oxazole-4-carboxamide] | 20 to 250 |
| Cc1[nH]c2c(-c3ccccc3)c(C(F)(F)F)nn2c(=O)c1C1=N[C@H](C(=O)O)CO1 [Compound C1192, (S)-2-(5-methyl-7-oxo-3-phenyl-2-(trifluoromethyl)-4,7-dihydropyrazolo[1,5-a]pyrimidin-6-yl)-4,5-dihydrooxazole-4-carboxylic acid] | < 20 |
| COCCNC(=O)Cc1c(C)[nH]c2c(-c3ccccc3)c(C(F)(F)F)nn2c1=O [Compound B1003, N-(2-methoxyethyl)-2-(5-methyl-7-oxo-3-phenyl-2-(trifluoromethyl)-4,7-dihydropyrazolo[1,5-a]pyrimidin-6-yl)acetamide] | > 250 |
| COc1ccccc1NC(=O)c1c[nH]c2c(-c3ccccc3)c(C(F)(F)F)nn2c1=O [Compound A1057, N-(2-methoxyphenyl)-7-oxo-3-phenyl-2-(trifluoromethyl)-4,7-dihydropyrazolo[1,5-a]pyrimidine-6-carboxamide] | 20 to 250 |
| Cc1[nH]c2c(-c3ccccc3)c(C(F)(F)F)nn2c(=O)c1C1OC(=O)c2ccccc21 (stereo not shown) [Compound C1168, 5-methyl-6-(3-oxo-1,3-dihydroisobenzofuran-1-yl)-3-phenyl-2-(trifluoromethyl)pyrazolo[1,5-a]pyrimidin-7(4H)-one] | 20 to 250 |
| COc1cccc2oc(-c3c(C(=O)N(C)CC(=O)O)[nH]c4c(-c5ccccc5)c(C(F)(F)F)nn4c3=O)nc12 [Compound C1197, N-(6-(4-methoxybenzo[d]oxazol-2-yl)-7-oxo-3-phenyl-2-(trifluoromethyl)-4,7-dihydropyrazolo[1,5-a]pyrimidine-5-carbonyl)-N-methylglycine] | 20 to 250 |
| COc1cccc2oc(-c3c(C)[nH]c4c(-c5c(F)cccc5F)c(C(F)(F)F)nn4c3=O)nc12 [Compound C1133, 3-(2,6-difluorophenyl)-6-(4-methoxybenzo[d]oxazol-2-yl)-5-methyl-2-(trifluoromethyl)pyrazolo[1,5-a]pyrimidin-7(4H)-one] | 20 to 250 |
| Cc1[nH]c2c(-c3ccccc3)c(C(F)(F)F)nn2c(=O)c1C(=O)Nc1cccc(Cl)c1 [Compound A1030, N-(3-chlorophenyl)-5-methyl-7-oxo-3-phenyl-2-(trifluoromethyl)-4,7-dihydropyrazolo[1,5-a]pyrimidine-6-carboxamide] | < 20 |
| Cc1[nH]c2c(-c3ccccc3)c(C(F)(F)F)nn2c(=O)c1-c1nnc(C2CCCCC2N)o1 (stereo not shown) [Compound D1080, 6-(5-(2-aminocyclohexyl)-1,3,4-oxadiazol-2-yl)-5-methyl-3-phenyl-2-(trifluoromethyl)pyrazolo[1,5-a]pyrimidin-7(4H)-one] | > 250 |
| COc1cccc2oc(-c3c(C)[nH]c4c(-c5ccccc5C#N)c(C(F)(F)F)nn4c3=O)nc12 [Compound C1148, 2-(6-(4-methoxybenzo[d]oxazol-2-yl)-5-methyl-7-oxo-2-(trifluoromethyl)-4,7-dihydropyrazolo[1,5-a]pyrimidin-3-yl)benzonitrile] | 20 to 250 |
| Cc1[nH]c2c(-c3ccccc3)c(C(F)(F)F)nn2c(=O)c1-c1cccnc1 [Compound C1003, 5-methyl-3-phenyl-6-(pyridin-3-yl)-2-(trifluoromethyl)pyrazolo[1,5-a]pyrimidin-7(4H)-one] | 20 to 250 |
| COc1cc(F)c(F)cc1NC(=O)c1c(C)[nH]c2c(-c3ccccc3)c(C(F)(F)F)nn2c1=O [Compound A1080, N-(4,5-difluoro-2-methoxyphenyl)-5-methyl-7-oxo-3-phenyl-2-(trifluoromethyl)-4,7-dihydropyrazolo[1,5-a]pyrimidine-6-carboxamide] | 20 to 250 |
| COc1cccc2oc(-c3c(C)[nH]c4c(-c5ccccc5)c(=O)[nH]n4c3=O)nc12 [Compound C1049, 6-(4-methoxybenzo[d]oxazol-2-yl)-5-methyl-3-phenylpyrazolo[1,5-a]pyrimidine-2,7(1H,4H)-dione] | 20 to 250 |
| COc1cccc2oc(-c3c(C(=O)NCCN(C)C)[nH]c4c(-c5ccccc5)c(C(F)(F)F)nn4c3=O)nc12 [Compound C1212, N-(2-(dimethylamino)ethyl)-6-(4-methoxybenzo[d]oxazol-2-yl)-7-oxo-3-phenyl-2-(trifluoromethyl)-4,7-dihydropyrazolo[1,5-a]pyrimidine-5-carboxamide] | 20 to 250 |
